Assay: Surface tension of aqueous PEFA solutions, Wilhelmy plate method
Assay type: physicochemical
Details: aqueous solution
Method: Surface Tension: Surface tensions were measured, using Wilhelmy plate method (Digital Tensiometer K10ST, KRÜSS) for different concentrations of PEFA in aqueous solution. The stabilization time was from 30 minutes in higher concentration to as long as 2 hours in lower concentration (below 2.5 mg/L). The final data was recorded when the measured surface tension became stable.

Average area occupied by each molecule: 54.7 Å^2/molecule
Surface excess concentration: 2.93 × 10^−6 mol/m^2
Critical Micelle Concentration (Wilhelmy plate): 15.2 mg/L
Minimum surface tension (Wilhelmy plate): 36.8 mN/m
Slope of linear part for surface tension line (Wilhelmy plate): −11.14 mN/m
SMILES: CC(=O)OC[C@H]1O[C@H]2O[C@@H](C)CCCCCC/C=C\CCCCCCCC(=O)O[C@H]3[C@H](O)[C@@H](O)[C@H](O[C@@H]2[C@@H](O)[C@@H]1O)O[C@@H]3COC(C)=O [Sophorolipid, 1′,4″-Sophorolactone 6′,6″-diacetate]
